Measurements taken from ChEMBL document CHEMBL5303573, “Mapping human microbiome drug metabolism by gut bacteria and their genes” (Nature, 2019).

Tests used:
[1] = The drug is tested on Bifidobacterium longum subsp. Infantis strain: CCUG52486 for biotransformation. The drug concentrations were measured before and after a 12-h incubation by liquid-chromatography-coupled mass spectrometry (LC–MS); settings: 2 µM
[2] = The drug is tested on Bacteroides coprophilus strain: DSM18228 for biotransformation. The drug concentrations were measured before and after a 12-h incubation by liquid-chromatography-coupled mass spectrometry (LC–MS); settings: 2 µM
[3] = The drug is tested on Bacteroides finegoldii strain: DSM17565 for biotransformation. The drug concentrations were measured before and after a 12-h incubation by liquid-chromatography-coupled mass spectrometry (LC–MS); settings: 2 µM
[4] = The drug is tested on Bacteroides xylanisolvens strain: DSM18836 for biotransformation. The drug concentrations were measured before and after a 12-h incubation by liquid-chromatography-coupled mass spectrometry (LC–MS); settings: 2 µM
[5] = The drug is tested on Anaerotruncus colihominis strain: DSM17241 for biotransformation. The drug concentrations were measured before and after a 12-h incubation by liquid-chromatography-coupled mass spectrometry (LC–MS); settings: 2 µM
[6] = The drug is tested on Clostridium sp. strain: fecal isolate for biotransformation. The drug concentrations were measured before and after a 12-h incubation by liquid-chromatography-coupled mass spectrometry (LC–MS); settings: 2 µM
[7] = The drug is tested on Dorea formicigenerans strain: ATCC27755 for biotransformation. The drug concentrations were measured before and after a 12-h incubation by liquid-chromatography-coupled mass spectrometry (LC–MS); settings: 2 µM
[8] = The drug is tested on Ruminococcus gnavus strain: ATCC29149 for biotransformation. The drug concentrations were measured before and after a 12-h incubation by liquid-chromatography-coupled mass spectrometry (LC–MS); settings: mediterraneibacter gnavus, 2 µM
[9] = The drug is tested on Ruminococcus torques strain: ATCC27756 for biotransformation. The drug concentrations were measured before and after a 12-h incubation by liquid-chromatography-coupled mass spectrometry (LC–MS); assay type: ADME; parameters: dose 2 uM, timepoint 0 vs 12 hours; settings: 2 µM
[10] = The drug is tested on Enterobacter cancerogenus strain: ATCC35316 for biotransformation. The drug concentrations were measured before and after a 12-h incubation by liquid-chromatography-coupled mass spectrometry (LC–MS); settings: 2 µM
[11] = bifidobacterium adolescentis, 12 h, 2 µM
Description: The drug is tested on Bifidobacterium adolescentis strain: ATCC 15703 for biotransformation. The drug concentrations were measured before and after a 12-h incubation by liquid-chromatography-coupled mass spectrometry (LC–MS)

[12] = bacteroides fragilis, 12 h, 2 µM
Description: The drug is tested on Bacteroides fragilis strain: 3397 (T10) for biotransformation. The drug concentrations were measured before and after a 12-h incubation by liquid-chromatography-coupled mass spectrometry (LC–MS)

[13] = bacteroides intestinalis, 12 h, 2 µM
Description: The drug is tested on Bacteroides intestinalis strain: DSM17393 for biotransformation. The drug concentrations were measured before and after a 12-h incubation by liquid-chromatography-coupled mass spectrometry (LC–MS)

[14] = bacteroides thetaiotaomicron, 12 h, 2 µM
Description: The drug is tested on Bacteroides thetaiotaomicron strain: VPI-5482 for biotransformation. The drug concentrations were measured before and after a 12-h incubation by liquid-chromatography-coupled mass spectrometry (LC–MS)

[15] = bacteroides thetaiotaomicron, 12 h, 2 µM; remark: listed apart in the source
Description: The drug is tested on Bacteroides thetaiotaomicron strain: 3731 for biotransformation. The drug concentrations were measured before and after a 12-h incubation by liquid-chromatography-coupled mass spectrometry (LC–MS)

[16] = bacteroides thetaiotaomicron, 12 h, 2 µM; remark: listed apart in the source
Description: The drug is tested on Bacteroides thetaiotaomicron strain: 7330 for biotransformation. The drug concentrations were measured before and after a 12-h incubation by liquid-chromatography-coupled mass spectrometry (LC–MS)

[17] = parabacteroides distasonis, 12 h, 2 µM
Description: The drug is tested on Parabacteroides distasonis strain: ATCC8503 for biotransformation. The drug concentrations were measured before and after a 12-h incubation by liquid-chromatography-coupled mass spectrometry (LC–MS)

[18] = anaerostipes sp., 12 h, 2 µM
Description: The drug is tested on Anaerostipes sp. strain: fecal isolate for biotransformation. The drug concentrations were measured before and after a 12-h incubation by liquid-chromatography-coupled mass spectrometry (LC–MS)

[19] = roseburia intestinalis, 12 h, 2 µM
Description: The drug is tested on Roseburia intestinalis strain: L1-82 for biotransformation. The drug concentrations were measured before and after a 12-h incubation by liquid-chromatography-coupled mass spectrometry (LC–MS)

Row | SMILES | Bacterial Biotransformation [1] | Bacterial Biotransformation [2] | Bacterial Biotransformation [3] | Bacterial Biotransformation [4] | Bacterial Biotransformation [5] | Bacterial Biotransformation [6] | Bacterial Biotransformation [7] | Bacterial Biotransformation [8] | Bacterial Biotransformation [9] | Bacterial Biotransformation [10] | Bacterial Biotransformation [11] | Bacterial Biotransformation [12] | Bacterial Biotransformation [13] | Bacterial Biotransformation [14] | Bacterial Biotransformation [15] | Bacterial Biotransformation [16] | Bacterial Biotransformation [17] | Bacterial Biotransformation [18] | Bacterial Biotransformation [19]
1 | CCN(CC)C(=O)C1(c2ccccc2)CC1CN (stereo not drawn) | Compound NOT metabolized | Compound NOT metabolized | Compound NOT metabolized | Compound NOT metabolized | Compound NOT metabolized | Compound NOT metabolized | Compound NOT metabolized | Compound NOT metabolized | Compound NOT metabolized | Compound NOT metabolized | Compound NOT metabolized | Compound NOT metabolized | Compound NOT metabolized | Compound NOT metabolized | Compound NOT metabolized | Compound NOT metabolized | Compound NOT metabolized | Compound NOT metabolized | Compound NOT metabolized
2 | CN(C)CC(c1ccc(O)cc1)C1(O)CCCCC1.O=C(O)CCC(=O)O (stereo not drawn) [DESVENLAFAXINE SUCCINATE] | Compound NOT metabolized | Compound NOT metabolized | Compound NOT metabolized | Compound NOT metabolized | Compound NOT metabolized | Compound NOT metabolized | Compound NOT metabolized | Compound NOT metabolized | Compound NOT metabolized | Compound NOT metabolized | Compound NOT metabolized | Compound NOT metabolized | Compound NOT metabolized | Compound NOT metabolized | Compound NOT metabolized |  | Compound NOT metabolized | Compound NOT metabolized | Compound NOT metabolized
3 | CNCC[C@H](Oc1cccc2ccccc12)c1cccs1 [DULOXETINE] | Compound NOT metabolized | Compound metabolized | Compound NOT metabolized | Compound metabolized | Compound NOT metabolized | Compound metabolized | Compound NOT metabolized | Compound NOT metabolized | Compound NOT metabolized | Compound metabolized | Compound NOT metabolized |  | Compound NOT metabolized | Compound NOT metabolized | Compound NOT metabolized |  | Compound NOT metabolized | Compound NOT metabolized | Compound NOT metabolized
4 | CC(CCc1ccccc1)NCC(O)c1ccc(O)c(C(N)=O)c1 (stereo not drawn) [LABETALOL] | Compound NOT metabolized | Compound NOT metabolized | Compound NOT metabolized | Compound NOT metabolized |  | Compound NOT metabolized | Compound NOT metabolized | Compound NOT metabolized | Compound NOT metabolized | Compound NOT metabolized | Compound NOT metabolized | Compound NOT metabolized | Compound NOT metabolized | Compound NOT metabolized | Compound NOT metabolized | Compound NOT metabolized | Compound NOT metabolized | Compound NOT metabolized | Compound NOT metabolized
5 | Nc1nnc(-c2cccc(Cl)c2Cl)c(N)n1 [LAMOTRIGINE] |  | Compound NOT metabolized | Compound NOT metabolized | Compound NOT metabolized | Compound NOT metabolized | Compound NOT metabolized | Compound NOT metabolized | Compound NOT metabolized | Compound NOT metabolized | Compound NOT metabolized | Compound NOT metabolized | Compound NOT metabolized | Compound NOT metabolized | Compound NOT metabolized | Compound NOT metabolized |  |  | Compound NOT metabolized | Compound NOT metabolized
6 | COCCc1ccc(OCC(O)CNC(C)C)cc1.COCCc1ccc(OCC(O)CNC(C)C)cc1.O=C(O)C(O)C(O)C(=O)O (stereo not drawn) [METOPROLOL TARTRATE] | Compound NOT metabolized | Compound NOT metabolized | Compound NOT metabolized |  | Compound NOT metabolized | Compound NOT metabolized | Compound NOT metabolized | Compound NOT metabolized | Compound NOT metabolized | Compound NOT metabolized | Compound NOT metabolized | Compound NOT metabolized | Compound NOT metabolized | Compound NOT metabolized |  |  | Compound NOT metabolized | Compound NOT metabolized | Compound NOT metabolized
7 | C=CCN1CC[C@]23c4c5ccc(O)c4O[C@H]2C(=O)CC[C@@]3(O)[C@H]1C5 [NALOXONE] | Compound NOT metabolized | Compound metabolized | Compound NOT metabolized | Compound metabolized | Compound NOT metabolized | Compound metabolized | Compound NOT metabolized | Compound NOT metabolized | Compound metabolized | Compound NOT metabolized | Compound metabolized | Compound metabolized |  | Compound metabolized | Compound metabolized | Compound metabolized | Compound NOT metabolized | Compound NOT metabolized | Compound metabolized
8 | CN1CCOC(c2ccccc2)c2ccccc2C1 (stereo not drawn) [NEFOPAM] | Compound NOT metabolized | Compound NOT metabolized | Compound NOT metabolized | Compound NOT metabolized | Compound NOT metabolized |  | Compound NOT metabolized | Compound NOT metabolized | Compound NOT metabolized | Compound NOT metabolized | Compound NOT metabolized | Compound NOT metabolized | Compound NOT metabolized | Compound NOT metabolized | Compound NOT metabolized | Compound NOT metabolized | Compound NOT metabolized | Compound NOT metabolized | Compound NOT metabolized
9 | COc1ccc(Cc2nccc3cc(OC)c(OC)cc23)cc1OC [PAPAVERINE] | Compound NOT metabolized | Compound NOT metabolized | Compound NOT metabolized | Compound NOT metabolized | Compound NOT metabolized | Compound NOT metabolized | Compound NOT metabolized | Compound NOT metabolized | Compound NOT metabolized | Compound NOT metabolized | Compound NOT metabolized | Compound NOT metabolized | Compound NOT metabolized | Compound NOT metabolized | Compound NOT metabolized | Compound NOT metabolized |  | Compound NOT metabolized | Compound NOT metabolized
